This passage reports IC50 results from the COVID Moonshot data (paper PMC7615835).

Where “and” joins values, the source holds several entries; their conditions need not be identical. Equal entries are not always repeated. Some results are limits rather than exact numbers.

The target of this assay is SARS-CoV-2 Main Protease (SARS-CoV-2) (UniProt P0DTD1).

The compound `CC(C)(C)c1ccc(N(C(=O)c2cn(CCN3CCOCC3)nn2)C(C(=O)NCCc2cccc(F)c2)c2cccnc2)cc1` (stereo not drawn) showed a 50% inhibitory concentration (IC50) of 10500 nM.
For `CC(NC(=O)C1CCC(=O)NC1)(C(=O)Nc1cncc2ccccc12)c1ccc(Cl)c(Cl)c1` (stereo not drawn) the value was 4100 nM.
With `COc1nc(Br)cnc1Nc1cc(Cl)cc(CC(=O)Nc2cncc3ccccc23)c1`, the IC50 is 2050 nM.
The compound `C=CC(=O)N(c1ccc(C(C)(C)C)cc1)C(C(=O)NCCSC)c1cccnc1` (stereo not drawn) displayed an IC50 of 20200 nM.
Regarding `CC(=O)NCCc1c[nH]c2c(CN3CCN(C(=O)CCl)CC3)cccc12`, the IC50 is 17400 nM.
`O=C(Cc1cc(Cl)cc(Nc2ccc([N+](=O)[O-])cc2C(F)(F)F)c1)Nc1cncc2ccccc12` gave an IC50 of 2010 nM.
In the case of `O=C(Cc1cc(Cl)cc(Nc2cc(Cl)ccc2Br)c1)Nc1cncc2ccccc12`, the half-inhibitory concentration (IC50) was determined as 2100 nM.
On to `CC(C)(C)c1ccc(N(C(=O)c2ccco2)C(C(=O)NCCc2cccc(F)c2)c2cncc3ccccc23)cc1` (stereo not drawn), for which the IC50 came out at 403 nM.
As for `C=CC(=O)NCCC(=O)N(Cc1ccccc1)Cc1nc2ccccc2c(=O)[nH]1`, the figure is greater than 99500 nM; as for `CS(=O)(=O)c1ccccc1C(=O)N1CCC(C2CCNC2)CC1` (stereo not drawn), greater than 99500 nM; as for `O=C1OC2(CCOc3ccc(Cl)cc32)C(=O)N1c1cncc2ccccc12` (stereo not drawn), greater than 99500 nM.
As for `COCCCNC(=O)C(c1cccnc1)N(C(=O)c1cocn1)c1ccc(C(C)(C)C)cc1` (stereo not drawn), the figure is 8790 nM.
Regarding `O=C(COCC(=O)N1CCCC1)NC(C(=O)Nc1cncc2ccccc12)c1cccc(Cl)c1` (stereo not drawn), the IC50 was 6350 nM and 8470 nM.
For `Cc1cn2nc(NCc3ccc4ncccc4c3)sc2n1`, the IC50 is greater than 99500 nM.
For `CS(=O)(=O)c1ccc2cncc(NC(=O)C3CNC(=O)c4c(F)cc(F)cc43)c2c1` (stereo not drawn) the value was 3600 nM; for `Cc1[nH]c2ccccc2c1C(=O)CSc1nc2cc(Cl)cnc2[nH]1`, greater than 99500 nM.
On to `CC(C)(C)c1ccc(N(C(=O)c2cocn2)C(C(=O)NCCN2CCOCC2)c2cccnc2)cc1` (stereo not drawn), for which the IC50 came out at 82500 nM.
With `O=C(Cc1cc(Cl)cc(Nc2cc(Cl)c(F)c(Cl)c2)c1)Nc1cncc2ccccc12`, the IC50 amounted to 1850 nM.
As for `O=C(NCCc1cccc(F)c1)C(c1cccnc1)N(C(=O)c1cocn1)C1CC2CCCC2C1` (stereo not drawn), the figure is greater than 99500 nM; as for `CC(C)c1nc(CN(C)c2cc(Cl)cc(CC(=O)Nc3cncc4ccccc34)c2)cs1`, 2630 nM.
As for `CNC(=O)c1ccc2cncc(NC(=O)C3CN(S(=O)(=O)CC4(C)CS(=O)(=O)C4)Cc4ccc(Cl)cc43)c2c1` (stereo not drawn), the figure is 110 nM; as for `CN(C)S(=O)(=O)N1CCN(C(=O)C2Nc3ccccc3S(=O)(=O)N2)CC1` (stereo not drawn), greater than 99500 nM.
As for `O=C(CN1CC2(CCN(c3cncc4ccccc34)C2=O)c2cc(Cl)ccc2S1(=O)=O)NCC1CC1` (stereo not drawn), the figure is 203 nM.
The compound `O=C(CN1CC(C(=O)Nc2cncc3cc(F)ccc23)c2cc(Cl)ccc2C1=O)NC1CC1` (stereo not drawn) came in with an IC50 of 556 nM.
Take `CCCNC(=O)CN1CC(C(=O)Nc2cncc3cc(S(C)(=O)=O)ccc23)c2cc(Cl)ccc2C1=O` (stereo not drawn): the IC50 is 127 nM and 209 nM.
As to `CNC(=O)CN1CC(C)(C(=O)Nc2cncc3cccc(Cl)c23)c2cc(Cl)ccc2S1(=O)=O` (stereo not drawn), the IC50 is 1160 nM.
For `Cc1cc(I)ccc1Nc1cc(Cl)cc(CC(=O)Nc2cncc3ccccc23)c1` the value was 2450 nM.
Compound `O=C1CCN(S(=O)(=O)c2cccc(F)c2)CC1` had an IC50 greater than 99500 nM.
`CC(C)(C)NC(=O)CN1CC(C(=O)Nc2cncc3cc(F)ccc23)c2cc(Cl)ccc2C1=O` (stereo not drawn) gave an IC50 of 1010 nM.
For `O=C(Nc1ccc(F)cc1)[C@@H](c1ccccc1)N1Cc2ccccc2C1=O` (stereo in doubt) the value was greater than 99500 nM; for `CN1CCCC(N(C(=O)c2cocn2)C(C(=O)NCCc2cccc(F)c2)c2cccnc2)C1` (stereo not drawn), greater than 99500 nM.
`O=C(Cc1cc(Cl)cc(Nc2ccc3cc(Br)ccc3c2)c1)Nc1cncc2ccccc12` yielded a half-maximal inhibitory concentration (IC50) of 2100 nM.
In the case of `CN(C)S(=O)(=O)c1cccc(C(=O)Nc2c(-c3ccccc3)nc3sccn23)c1`, the IC50 was found to be 975 nM.
For the compound `O=C1N(c2cncc3ccccc23)CCC12CN(S(=O)(=O)CC1(C(F)(F)F)CC1)Cc1ccc(Cl)cc12` (stereo not drawn), the IC50 was found to be 157 nM.
For the compound `CC(C)N1CCCC(N2CCN(c3ccc4nccnc4n3)CC2)C1=O` (stereo not drawn), the IC50 is greater than 99500 nM.
As for `CCOC(=O)c1ccc(NC(=O)CC2SC(=O)N(c3ccccc3)C2=O)cc1` (stereo not drawn), the figure is 2400 nM.
Turning to `O=C(Cc1cc(Cl)cc(Nc2ccccc2Sc2ccccc2)c1)Nc1cncc2ccccc12`, the IC50 worked out at 2470 nM.
In the case of `NCc1cn(CC(=O)N(Cc2ccsc2)c2ccc(-n3cnnc3)cc2)nn1`, the IC50 is greater than 99500 nM.
Consider `CS(=O)(=O)c1ccc(N(C(=O)c2cocn2)C(C(=O)NCCc2cccc(F)c2)c2cccnc2)cc1` (stereo not drawn), for which the IC50 came out at 75900 nM.
For `Cc1ccc(CC(=O)Nc2cncc3ccccc23)cc1` the value was 58400 nM; for `N#Cc1cnn(-c2ccccn2)c1Nc1cc(Cl)cc(CC(=O)Nc2cncc3ccccc23)c1`, 1720 nM.
In the case of `N#Cc1ncc(F)cn1`, the IC50 is greater than 99500 nM.
For `O=C(Nc1cncc2ccncc12)[C@H]1CCOc2cc(F)c(Cl)cc21` (stereo in doubt) the value was greater than 99500 nM; for `Nc1nn(C(=O)C2CCOc3ccc(Cl)cc32)c2cc(F)ccc12` (stereo not drawn), greater than 99500 nM.
Take `O=C(Nc1cnccc1CO)[C@@H]1COc2ccc(Cl)cc21` (stereo in doubt): the IC50 is 42700 nM and 42000 nM.
`C=CC(=O)N(c1ccc(C(C)(C)C)cc1)C(C(=O)NCc1cccnc1)c1cccnc1` (stereo not drawn) gave an IC50 of 49900 nM.
For `O=C(Cc1cc(Cl)cc(Nc2ccc(Cl)c(Cl)c2F)c1)Nc1cncc2ccccc12` the value was 2260 nM; for `CN(CCC#N)S(=O)(=O)N1Cc2ccc(Cl)cc2C2(CCN(c3cncc4ccccc34)C2=O)C1` (stereo not drawn), 613 nM; for `C=CC(=O)N(Cc1ccccc1Cl)C(C(=O)NC(C)(C)C)c1cccnc1` (stereo not drawn), greater than 99500 nM.
Take `Cc1c(N)cncc1NC(=O)Cc1cccc(C#N)c1`: the IC50 turned out to be 16100 nM.
In the case of `O=C(NCCc1cccc(F)c1)C(c1cccnc1)N(C(=O)c1ccco1)c1ccc(C2CCCC2)cc1` (stereo not drawn), the IC50 came to 282 nM.
As for `O=C(Cc1cc(Cl)cc(N2CCN(C(=O)OCc3ccccc3)CC2)c1)Nc1cncc2ccccc12`, the figure is 2230 nM.
Compound `CCOC(=O)c1c(C)n(S(C)(=O)=O)c2ccc(N(C(=O)c3ccco3)S(C)(=O)=O)cc12` returned an IC50 of 282 nM.
Regarding `Cc1ccncc1NC(=O)Cc1cc(Cl)cc(/C=C(/c2ccccc2)C(F)(F)F)c1`, the concentration for half-maximal inhibition (IC50) is 22800 nM.
`NC(=O)C1Cc2ccccc2CN1CC(=O)N1CCN(c2ncccn2)CC1` (stereo not drawn) gave a concentration for half-maximal inhibition (IC50) greater than 99500 nM.
Consider `C[n+]1ccn(CCc2cccc(Cl)c2)c1C#N`, for which the concentration for half-maximal inhibition (IC50) was greater than 99500 nM.
`O=C(Cc1cc(Cl)cc(Nc2cc(Br)cc(C(F)(F)F)c2)c1)Nc1cncc2ccccc12`: the IC50 worked out at 1870 nM.
Compound `Cc1cc(C)nc(C#N)n1` came in with a concentration for half-maximal inhibition (IC50) greater than 99500 nM.
As for `Cc1nn(C)c2nc(Cl)cc(NNC(=O)c3ccnc4[nH]nnc34)c12`, the IC50 was greater than 99500 nM.
As for `C=CC(=O)N1CCN(S(=O)(=O)c2cccs2)CC1`, the IC50 was greater than 99500 nM.
For `CNC(=O)CN1Cc2ccc(Cl)cc2C2(CCN(c3cncc4cccc(Cl)c34)C2=O)C1` (stereo not drawn), the IC50 was found to be 3280 nM.
For the compound `CCCNC(=O)CN1CC(C(=O)Nc2cncc3ccccc23)c2cc(Cl)ccc2C1=O` (stereo not drawn), the IC50 was 86.4 nM and 174 nM.
Regarding `O=C(Cc1cc(O)cc(Cl)c1)Nc1cncc2ccccc12`, the IC50 came to 9890 nM.
As for `COc1cccc(CC(=O)Nc2cncc3ccccc23)c1`, the figure is 30500 nM; as for `Cn1c(NC(=O)Cc2csc3nccn23)nc2ccc(F)cc21`, greater than 99500 nM.
With `O=C(Nc1cncc2ccccc12)C1CN(S(=O)(=O)NC2CCC2)Cc2ccc(Cl)cc21` (stereo not drawn), the IC50 is 99.9 nM and 132 nM and 127 nM.
`COc1ccc(NC(=O)[C@@H]2CN(C(=O)CCl)CCN2S(=O)(=O)c2ccsc2)cc1` (stereo in doubt): the IC50 amounted to 450 nM.
In turn, `Cn1cncc1C(=O)N1Cc2ccc(Cl)cc2C(C(=O)Nc2cncc3ccccc23)C1` (stereo not drawn) came in with an IC50 of 224 nM.
In turn, `O=C1OC(c2cccs2)=N/C1=C\c1ccc(N2CCOCC2)s1` came in with an IC50 of 696 nM.
For `O=C(NCCc1ccccc1)[C@@H]1CN(C(=O)CCl)CCN1S(=O)(=O)c1ccsc1` (stereo in doubt), the IC50 worked out at 1280 nM.
Regarding `N#Cc1ccc(CC(=O)Nc2cncc3ccccc23)cc1`, the IC50 is greater than 99500 nM.
As for `O=C(Cc1cc(Cl)cc(Nc2cnc(Cl)c(Br)c2)c1)Nc1cncc2ccccc12`, the IC50 amounted to 3080 nM.
On to `N#CC1(CS(=O)(=O)N2Cc3ccc(Cl)cc3C3(CCN(c4cncc5c4CCCC5)C3=O)C2)CC1` (stereo not drawn), for which the IC50 is 515 nM.
Turning to `N#CC1(CS(=O)(=O)N2Cc3ccc(Cl)cc3C(C(=O)Nc3cncc4cccc(Cl)c34)C2)CC1` (stereo not drawn), the IC50 amounted to 259 nM.
Take `O=C(Nc1c[nH]c(=O)c2ccccc12)C1CCOc2ccc(Cl)cc21` (stereo not drawn): the IC50 was greater than 99500 nM.
As for `Cc1ccccc1C(C)N(C(=O)c1cnc[nH]1)C(C(=O)NCCc1cccc(F)c1)c1cccnc1` (stereo not drawn), the figure is greater than 99000 nM; as for `CNS(=O)(=O)c1cc2c(cc1OCc1ccccc1)OCO2`, greater than 99500 nM; as for `CCS(=O)(=O)Nc1ccc2c(NC(=O)C3CN(S(=O)(=O)CC4(C#N)CC4)Cc4ccc(Cl)cc43)cncc2c1` (stereo not drawn), less than 50 nM.
In the case of `Cc1cnc(Nc2cc(Cl)cc(CC(=O)Nc3cncc4ccccc34)c2)c([N+](=O)[O-])c1`, the IC50 is 1860 nM.
For `O=C(CN1CC(C(=O)Nc2cncc3ccccc23)c2cc(Cl)ccc2C1=O)NCC(F)(F)F` (stereo not drawn) the value was 340 nM; for `COCc1ccccc1CNS(=O)(=O)c1c(C)sc(C)c1C`, greater than 99500 nM.
For `CC(C)(C)Oc1ccncc1NC(=O)Cc1cccc(Cl)c1` the value was 22900 nM; for `CC(C)(C)c1ccc(N(C(=O)c2cnc[nH]2)C(C(=O)NCCc2cccc(F)c2)c2cccnc2)cc1` (stereo not drawn), 292 nM; for `O=C(NCc1ccccn1)[C@@H]1CN(C(=O)CCl)CCN1S(=O)(=O)c1ccsc1` (stereo in doubt), 542 nM.
As for `O=C1NCC(C(=O)Nc2cnc3ccccn23)c2cc(Cl)ccc21` (stereo not drawn), the figure is 5930 nM.
In turn, `COc1ccc2cncc(NC(=O)[C@@H]3CCNc4cc(Cl)c(Cl)cc43)c2c1` (stereo in doubt) returned an IC50 of 27200 nM.
`O=C(Cc1cc(Cl)cc(Nc2cc(C(F)(F)F)ccc2Cl)c1)Nc1cncc2ccccc12` registered an IC50 of 1610 nM.
For `CCOC(=O)CNC(=O)C(c1cccnc1)N(C(=O)c1cocn1)c1ccc(C(C)(C)C)cc1` (stereo not drawn), the IC50 was found to be 9530 nM.

What is called IC50 is the midpoint of a concentration-inhibition curve. A lower IC50 goes with inhibition by little substance.
